Measured values from article PMC9224473 (International Journal of Molecular Sciences, 2022).
Values after ≈ are worked out from the molar mass of the structure shown. Read-outs that look alike come from different tables or passages of the source.

Experiments:
E. coli ATCC 25922 = assay: MIC, broth microdilution, standard strain; assay type: cell-based, Escherichia coli; details: 35 °C; for MIC: Escherichia coli, ATCC25922, 19 h; for MIC E. coli ATCC 25922: 19 h
[1] = system: HCT116 (human colon cancer); assay: MTT cytotoxicity assay; assay type: cell-based; details: mean SD
Method: (§1) The human cell lines SW480 (primary colon cancer), SW620 (lymph node metastatic colon cancer from the same patient as primary cancer cells), HCT116 (colon carcinoma), HepG2 (liver cancer), and HaCaT (immortalized keratinocytes) were obtained from the American Type Culture Collection (ATCC, Rockville, MD, USA). The SW480, SW620 and HCT116 cells were grown in MEM (ThermoSci, Waltham, MA, USA), HepG2 and HaCaT in DMEM High Glucose (Biowest SAS, Nuaillé, France) supplemented with 10% foetal bovine serum (FBS), HEPES (20 mM), and antibiotics (100 U mL^−1 of Penicillin and 100 μg mL^−1 of Streptomycin). The cells were incubated in a humidified incubator at 37 °C/5% CO2, until 80–90% confluence was reached.
(§2) The cell viability was assessed by using of MTT salt [3-(4,5-dimethylthiazol-2-yl)-2,5-diphenyltetrazolium bromide] converted by mitochondrial dehydrogenase, occurring in living cells. The cells were seeded in 96-well plates at a density of 1 × 10^4 cells per well and allowed to adhere for 24 h at 37 °C in a CO2 humidified incubator. […]. The untreated cells were used as the control.
(§3) After 72 h incubation, the medium was replaced with 200 µL per well of free-serum medium containing 0.5 mg mL^−1 MTT and incubated for 4 h at 37 °C in a CO2 humidified incubator. Subsequently, the medium was removed and dimethyl sulfoxide (DMSO) with isopropanol (1:1) was added to dissolve the formazan crystals. The optical density was measured using UVM 340 reader (ASYS Hitech GmbH, Eugendorf, Austria) at a wavelength of 570 nm. The experiments were repeated three times. The cell viability was calculated as the percent of MTT reduced in treated cells versus control cells (untreated cells). The number of viable cells cultured without tested compounds was assumed as 100%. A decreased relative MTT level indicates decreased cell viability. The IC50 values were estimated using CompuSyn version 1.0.

[2] = system: HepG2 (human liver cancer); assay: MTT cytotoxicity assay; assay type: cell-based; details: mean SD
Method: as §1, §2, §3

[3] = system: HaCaT (human immortal keratinocyte cell line); assay: MTT cytotoxicity assay; assay type: cell-based; details: 72 h, mean SD, read-out: IC50 HaCaT (normal cells)
Method: as §1, §2, §3

[4] = system: SW480 (human primary colon cancer); assay: MTT cytotoxicity assay; assay type: cell-based; details: mean SD
Method: as §1, §2, §3

[5] = system: S. epidermidis ATCC 12228; assay: MIC, broth microdilution, standard strain; assay type: cell-based, Staphylococcus epidermidis; details: 35 °C; for MIC: Staphylococcus epidermidis, ATCC12228, 19 h
S. aureus NCTC 4163 = assay: MIC, broth microdilution, standard strain; assay type: cell-based, Staphylococcus aureus; details: 35 °C; for MIC: Staphylococcus aureus, NCTC4163, 19 h
S. aureus ATCC 25923 = assay: MIC, broth microdilution, standard strain; assay type: cell-based, Staphylococcus aureus; details: 35 °C; for MIC: Staphylococcus aureus, ATCC25923, 19 h
[6] = system: SW620 (human metastatic colon cancer); assay: MTT cytotoxicity assay; assay type: cell-based; details: mean SD
Method: as §1
The cell viability was assessed by using of MTT salt [3-(4,5-dimethylthiazol-2-yl)-2,5-diphenyltetrazolium bromide] converted by mitochondrial dehydrogenase, occurring in living cells. […] The untreated cells were used as the control.
as §3, with “Subsequently,” for “After 72 h incubation, the medium was replaced with 200 µL per well of free-serum medium containing 0.5 mg mL^−1 MTT and incubated for 4 h at 37 °C in a CO2 humidified incubator. Subsequently,”

[7] = system: S. epidermidis ATCC 35984; assay: MIC, broth microdilution, standard strain; assay type: cell-based, Staphylococcus epidermidis; details: 35 °C; for MIC: Staphylococcus epidermidis, ATCC35984, 19 h
[8] = system: standard bacteria strains; assay: Antimicrobial screening (MIC), standard bacteria strains; assay type: cell-based; details: MIC evaluation
Method: Obtained compounds were examined for antimicrobial potency. Firstly, all of them were screened for their minimal inhibitory concentrations (MICs). A suitable set of bacteria was used, including representative standard Gram-positive and Gram-negative rods (Table 2 and Table 3). For clarity, results are presented for menthol and thymol derivatives separately.
The antimicrobial assays were conducted using reference strains of bacteria derived from international microbe collections: American Type Culture Collection (ATCC) and National Collection of Type Culture (NCTC). The following standard strains of bacteria were used: Gram-positive—Staphylococcus aureus NCTC 4163, Staphylococcus aureus ATCC 25923, Staphylococcus aureus ATCC 6538, Staphylococcus aureus ATCC 29213, Staphylococcus epidermidis ATCC 12228, Staphylococcus epidermidis ATCC 35984, Gram-negative: Escherichia coli ATCC 25922, Pseudomonas aeruginosa ATCC 15442. […] Antimicrobial activity was examined by the Minimal Inhibitory Concentration (MIC) method under standard procedures provided by CLSI with some modifications. MIC was determined by the two-fold serial broth microdilution method in 96-well microtitration plates using Mueller–Hinton II broth medium (Becton Dickinson, Franklin Lakes, NJ, USA). The final inoculum of all studied bacteria was 10^6 CFU/mL (colony forming unit per millilitre). The stock solution of tested compounds was prepared in dimethyl sulfoxide (DMSO) and diluted to a maximum of 1% of solvent content with a sterile medium.

P. aeruginosa ATCC 15442 = assay: MIC, broth microdilution, standard strain; assay type: cell-based, Pseudomonas aeruginosa; details: 35 °C; for MIC: Pseudomonas aeruginosa, ATCC15442, 19 h
S. aureus ATCC 29213 = assay: MIC, broth microdilution, standard strain; assay type: cell-based, Staphylococcus aureus; details: 35 °C; for MIC: Staphylococcus aureus, ATCC29213, 19 h
S. aureus ATCC 6538 = assay: MIC, broth microdilution, standard strain; assay type: cell-based, Staphylococcus aureus; details: 35 °C; for MIC: Staphylococcus aureus, ATCC6538, 19 h
S. pasteuri KR 4358 = assay: MIC, broth microdilution, clinical strain; assay type: cell-based, Staphylococcus pasteuri; details: Staphylococcus pasteuri, KR4358, 19 h, 35 °C
S. aureus T 5595 = assay: MIC, broth microdilution, clinical strain; assay type: cell-based, Staphylococcus aureus; details: Staphylococcus aureus, T5595, 19 h, 35 °C
S. aureus T 5591 = assay: MIC, broth microdilution, clinical strain; assay type: cell-based, Staphylococcus aureus; details: Staphylococcus aureus, T5591, 19 h, 35 °C
S. epidermidis KR 4243 = assay: MIC, broth microdilution, clinical strain; assay type: cell-based, Staphylococcus epidermidis; details: Staphylococcus epidermidis, KR4243, 19 h, 35 °C
P. aeruginosa 659 = assay: MIC, broth microdilution, clinical strain; assay type: cell-based, Pseudomonas aeruginosa; details: Pseudomonas aeruginosa, 659, read-out: MIC P. aeruginosa 659, 19 h, 35 °C
E. coli 600 = assay: MIC, broth microdilution, clinical strain; assay type: cell-based, Escherichia coli; details: Escherichia coli, 600, 19 h, 35 °C
E. coli 510 = assay: MIC, broth microdilution, clinical strain; assay type: cell-based, Escherichia coli; details: Escherichia coli, 510, 19 h, 35 °C
E. coli 520 = assay: MIC, broth microdilution, clinical strain; assay type: cell-based, Escherichia coli; details: Escherichia coli, 520, 19 h, 35 °C

Compound | MIC (E. coli ATCC 25922) [µg/mL] | IC50 ([1]; Homo sapiens, HCT-116, 72 h) [µM] | IC50 ([2]; Homo sapiens, HepG2, 72 h) [µM] | IC50 ([3]; Homo sapiens, HaCaT) [µM] | IC50 ([4]; Homo sapiens, SW480, 72 h) [µM] | MIC [5] [µg/mL] | MIC (S. aureus NCTC 4163) [µg/mL] | MIC (S. aureus ATCC 25923) [µg/mL] | IC50 ([6]; Homo sapiens, SW-620, 72 h) [µM] | MIC [7] [µg/mL] | Antimicrobial activity (in words) [8] | MIC (P. aeruginosa ATCC 15442) [µg/mL] | MIC (S. aureus ATCC 29213) [µg/mL] | MIC (S. aureus ATCC 6538) [µg/mL] | MIC E. coli ATCC 25922 (E. coli ATCC 25922) [µg/mL] | also measured
Cc1ccc(C(C)C)c(OC(=O)CCCCCOC(=O)c2cn(C3CC3)c3cc(N4CCN(CCCCCC(=O)Oc5cc(C)ccc5C(C)C)CC4)c(F)cc3c2=O)c1 [Compound 16] | > 256 | 30.5 ± 2.3 | 41.8 ± 2.5 | 64.9 ± 5.1 | 29.5 ± 1.9 | 128 (≈ 155 µM) | 128 (≈ 155 µM) | 128 (≈ 155 µM) | 49.6 ± 7 | 128 (≈ 155 µM) | rather inactive | > 256 | 256 (≈ 311 µM) | 64 (≈ 77.7 µM) | – | –
2-(2-isopropyl-5-methylphenoxy)-2-oxobutyl-1-cyclopropyl-6-fluoro-7-{4-[2-(2-isopropyl-5-methylphenoxy)-2-oxobutyl]piperazin-1-yl}-4-oxo-1,4-dihydroquinoline-3-carboxylate [Compound 15] | – | – | – | – | – | – | – | – | – | – | rather inactive | – | – | – | 128 | IC50 ([1]; 72 h): 48.2 ± 5.3 µM; IC50 ([2]; 72 h): 61.8 ± 1.5 µM; IC50 [3]: 67.1 ± 4.6 µM; IC50 ([4]; 72 h): 40.8 ± 4.2 µM; MIC S. epidermidis ATCC 12228 ([5]; 19 h): 128 µg/mL; MIC S. aureus NCTC 4163 (S. aureus NCTC 4163; 19 h): 64 µg/mL; MIC S. aureus ATCC 25923 (S. aureus ATCC 25923; 19 h): 64 µg/mL; IC50 ([6]; 72 h): 57.4 ± 3.6 µM; MIC S. epidermidis ATCC 35984 ([7]; 19 h): 128 µg/mL; MIC P. aeruginosa ATCC 15442 (P. aeruginosa ATCC 15442; 19 h): >256 µg/mL; MIC S. aureus ATCC 29213 (S. aureus ATCC 29213; 19 h): 256 µg/mL; MIC S. aureus ATCC 6538 (S. aureus ATCC 6538; 19 h): 128 µg/mL
CC(C)[C@@H]1CC[C@@H](C)C[C@H]1OC(=O)CCCN1CCN(c2cc3c(cc2F)c(=O)c(C(=O)O)cn3C2CC2)CC1 [Compound 4, 1-cyclopropyl-6-fluoro-7-{4-[4-((1R,2S,5R)-2-isopropyl-5-methylcyclohexyloxy)-4-oxobutyl]piperazin-1-yl}-4-oxo-1,4-dihydroquinoline-3-carboxylic acid] | 2 to 4 (≈ 3.6 to 7.2 µM) | 24.2 ± 0.1 | 35.1 ± 4.4 | 30.5 ± 2.4 | 36.8 ± 2.6 | 4 (≈ 7.2 µM) | 4 (≈ 7.2 µM) | 4 (≈ 7.2 µM) | 54.3 ± 4.1 | 4 (≈ 7.2 µM) | – | 64 (≈ 115 µM) | 4 (≈ 7.2 µM) | 4 (≈ 7.2 µM) | 4 (≈ 7.2 µM) | MIC (S. pasteuri KR 4358): 4 µg/mL (≈ 7.2 µM); MIC (S. aureus T 5595): 4 µg/mL (≈ 7.2 µM); MIC (S. aureus T 5591): 4 µg/mL (≈ 7.2 µM); MIC (S. epidermidis KR 4243): 4 µg/mL (≈ 7.2 µM); MIC (P. aeruginosa 659): 256 µg/mL (≈ 461 µM); MIC (E. coli 600): 4 µg/mL (≈ 7.2 µM); MIC (E. coli 510): 256 µg/mL (≈ 461 µM); MIC (E. coli 520): 8 µg/mL (≈ 14.4 µM)
